Measurements taken from patent publication US20050079566A1, “Analytical methods for determination of proteolytic cleavage at specific sites” (priority 2003, published 2005).
No end group written: not given here. *: point of attachment. Biotin = O=C1N[C@H]2[C@H](CS[C@H]2CCCCC(=O)*)N1

Key:
HYB 100-01-POD = test: ELISA: effect of peptide length and N-terminus on the signal with TAL reagent and HYB 100-01-POD; assay type: binding; conditions: Example 6, FIG. 6, activated TAL, HYB 100-01-POD 0.5 μg/ml; for signal: peptide coupled to Immobilizer plate
Experimental: PBS (100 μl) was added to all wells of an Immobilizer 96-well microtiter plate (Nunc). The relevant peptides (SEQ ID NO:11, 13, 14, 15 and 16) were all diluted to 50 μg/ml in PBS and 100 μl of individual solutions added to the first well of the respective row. […] The peptides were allowed to couple to the plate for two hours at 20-25° C. Residual coupling activity was reduced by the addition of 50 μl of 50 mM Tris Buffer, pH 8.0, for 30 minutes. Each well was then washed with 100 μl of PBS. To 0.5 ml of TAL reagent (Zhanjiang A&C Biologicals Ltd) was added 15 EU of Control Standard Endotoxin (CSE) followed by 12 ml of endotoxin-free PBS, and 100 μl of this solution was then added to each well. The plate was then incubated at 37° C. for 45 minutes.

antisera = test: Inhibition ELISA: cross-reactivity of antisera with peptides of different length; assay type: binding, mice; conditions: antisera against octapeptide QESGVSGR
Experimental: Immunization of mice: Separate groups of BCG-vaccinated mice were immunized with six doses (10 μg carrier) of each of these conjugates at 14-day intervals and their sera tested by ELISA in wells coated with the corresponding peptide coupled at molar ratios of 5:1 or 2.5:1 to the opposite carrier at a coating concentration of 10 μg/ml (with respect to carrier) in 0.05 M sodium carbonate buffer, pH 9.6.

TAL reagent = conditions: Example 4, FIG. 4; peptide at 40 ng/ml, detection with HYB 100-01-POD
Experimental: Under precautions to keep endotoxin contamination to a minimum, a solution of peptide (SEQ ID NO:12) at a concentration of 40 ng/ml in LAL reagent water (LRW) (Cambrex) was added to all wells of a streptavidin Immobilizer 96-well microtiter plate (Nunc) at 100 μl per well. After incubation for 10 minutes at 20-25° C., 100 μl of Control Standard Endotoxin (CSE) solution of 10 EU/ml were added to the first well of the appropriate rows. Serial doubling dilutions were then carried out across the plate leaving the last well as a blank without endotoxin. A 0.5-ml vial of TAL reagent (Zhanjiang A&C Biologicals Ltd) was reconstituted in 0.5 ml of LRW. This was diluted 12-, 15-, 30- and 40-fold in endotoxin-free 50 mM Tris buffer (Cambrex), whereupon 100 μl of a given dilution were added to each well of the corresponding row. The microtiter plate was incubated at 37° C. for 45 minutes. The reaction was stopped by quickly emptying the wells followed by 3×2 minute washes with stop buffer (25% isopropanol v/v in 100 mM glycine-HCl, pH 2.4). The plate was then equilibrated with 2×10-30-second washes with wash buffer. HYB 100-01-POD was diluted to 0.5 μg/ml in dilution buffer and added to each well at 100 μl/well. […] The color reaction was stopped by adding 100 μl of 1 M sulfuric acid to each well and the absorbance measured at 450 nm in a microplate reader, subtracting the absorbance at 620 nm.

In the case of ITDKDEISGR [Peptide SEQ ID NO:15], the “coating concentration at which the maximal (or similar) signal is reached” value (HYB 100-01-POD) is reported as 12.5 to 25 µg/mL.
With DKDEISGR [Peptide SEQ ID NO:14] the signal (HYB 100-01-POD) was “almost totally lost”.
With “Biocytin-VQAITDKDEISGRGF [Peptide SEQ ID NO:16]” the signal (HYB 100-01-POD) was “slightly lower signal”.
With AQESGVSGR [nonapeptide] the cross-reactivity (antisera) was > 100%.
For “Biocytin-VQAITDKDEISGR [Peptide SEQ ID NO:11]”, the “coating concentration at which the maximal (or similar) signal is reached” value (HYB 100-01-POD) was “about 0.05 μg/ml” and the signal (HYB 100-01-POD) was “much stronger signal”.
In the case of GVSGR [pentapeptide], the cross-reactivity (antisera; result in words) is reported as “little or no cross-reactivity”.
For “Biotin-VQAITDKDEISGRGF [Peptide SEQ ID NO:12]”, the “cleavage by endotoxin-activated TAL” value (TAL reagent) was “site-specific cleavage”.
